Experiments:
[1] = test system: airway hyper-responsiveness induced by peroxynitrite; test: Airway hyper-responsiveness model induced by exposure of peroxynitrite in guinea pigs (lung resistance after histamine); type: in vivo; settings: 30 mg/kg orally one hour before peroxynitrite, histamine 32 μg/kg i.v. on 5-day, control group 759, non-stimulation group 382
Experimental: This test was performed so as to investigate the pharmacological effect of the 7-aminoquinolinone derivative of the present invention on an airway hyper-responsiveness model induced by exposure of peroxynitrite in guinea pigs. The test procedure will now be described.
Guinea pigs were fasted for 18 hours or more. The animals were administrated the test substance (30 mg/kg) orally one hour before exposure of peroxynitrite and the neck was dissected under ether anesthesia, and then the trachea was exposed. 0.1 mL of 1 mmol/L peroxynitrite was administered intratracheally into pulmonary side by pushing with air and, after the administration, the incision was sutured and disinfected.
The measurement of airway hyper-responsiveness was performed on 5-day, taking the day of model preparation 0-day. Guinea pigs were fasted for 18 hours or more. The measurement of lung resistance; (RLung) was performed according to the method of R. E. Giles et al. (R. E. Giles, M. P. Finkel and J. Mazurowski: Use of an Analog On-Line Computer for the Evaluation of Pulmonary Resistance and Dynamic Compliance in the Anesthetized Dog. Arch. Int. Pharmacodyn. 194, 213-222 (1971)). That is, the animals were anesthetized with Nembutal (Trade name: 40 mg/kg, i.v., sodium pentobarbital) and subjected to cannulation into esophagus, trachea and jugular veins (for administration of histamine). The esophagus and trachea cannulas were connected to an artificial respirator (ventilation volume: 6 mL/kg, ventilation frequency: 60 times/min, SN-480-7) and the Rlung was measured after intravenous administration (dose of 0.1 mL/kg) of physiological saline solution and histamine (32 μg/kg) using a total plethysmograph system via flow sensor, connected to Validyne DF45F (for flow rate) and DP45P (for pressure). RLung before administration was determined by averaging values of any 3 out of 20 breaths, RLung after administration of physiological saline solution was determined by averaging values of any 3 out of 5 breaths, and RLung after administration of histamine was determined by averaging values of the following 3 breaths; 1) showing the maximum lung resistance, 2) taken just before and 3) taken just after the one with the maximum lung resistance, out less than 20 breaths. (The extreme values in RLung that occurred when animal moved during the measurement were excluded from the calculations.)
The percentage of increase in lung resistance was calculated by the following equation. Increase in lung resistance (%)=([RLung after administration of histamine]−[RLung before administration])/[RLung before administration]×100

[2] = Peroxynitrite scavenging activity (oxidation of dihydrorhodamine 123); type: biochemical; settings: oxidation of dihydrorhodamine 123 by peroxynitrite, phosphate buffer pH 7.4; read-out: 50% Inhibitory concentration on oxidation (IC50)
Experimental: This test was performed by estimating the antioxidative effect of the test substance using peroxynitrite quantitative method as a test system with dihydrorhodamine 123 so as to confirm the ability of the 7-aminoquinolinone derivatives of the present invention to scavenge peroxynitrite. This is a method described in NITRIC OXIDE: Biology and Chemistry Vol. 1, 145-157, 1997.
The test substance was weighted in an amount of approximately 10 mg, dissolved in a 10% Tween 80 solution and adjusted to 5×10^−3 mol/L. Then, the solution was diluted with 0.1 mol/L phosphate buffer (pH=7.4) to 5×10^−4 mol/L. The diluent was further diluted stepwise with a phosphate buffer containing 1% Tween 80 to obtain substance solution. The preparation was conducted before use. The final concentration of the test substance was adjusted to 3×10^−6, 1×10^−6, 3×10^−7, 1×10^−7, and 3×10^−8 mol/L, respectively.
To 20 μL of peroxynitrite solution (manufactured by DOJINDO LABORATORIES), 1980 μL of 0.1 mol/L sodium hydroxide was added and the mixture was diluted 100 times. The absorbance of the maximum absorption wavelength near 300 nm was measured using a UV-visible spectrophotometer and the concentration was calculated according to the following equation. Concentration(mmol/L)=(absorbance/1670)×100×1000
Based on the concentration calculated in the above section, dilution with a 0.1 mol/L sodium hydroxide solution was conducted and adjusted to 10 mmol/L. 990 μL of a 0.1 mol/L sodium hydroxide solution was taken into a 1.5 mL-Eppen tube. To the Eppen tube, 10 μL of a solution adjusted to 10 mmol/L was added to prepare a 100 μmol/L solution.
Dihydrorhodamine 123 was dissolved into 1.155 mL of dimethylsulfoxide, and adjusted to the concentration of 25 mmol/L. This solution was dispensed into 20 μL aliquots and then the aliquots were stored in a biomedical freezer (about −20° C.) and used as a stock solution.
To 490 μL of 0.02% Tween 80 containing 0.1 mol/L phosphate buffer, 10 μL of 25 mmol/L of a thawed dihydrorhodamine 123 stock solution was added to make 500 μmol/L. The prepared solution was diluted with 0.1 mol/L phosphate buffer (pH=7.4) 1000 times to prepare 500 nmol/L of a dihydrorhodamine 123 solution.
(1) To a 3.5 mL brown vial containing a stirring bar, 1470 μL of a 500 nmol/L dihydrorhodamine 123 solution and then 15 μL of the test substance solution was added. For the blank and control groups, 15 μL of 0.1 mol/L phosphate buffer containing 1% Tween 80, as a solvent for the test substance solution, was added. After the addition, the mixture was stirred with a stirrer for 30 minutes.
15 μL of a 100 μmol/L peroxynitrite solution was added while stirring. For the blank group, 15 μL of a 0.1 mol/L sodium hydroxide solution was added. After stirring for 15 minutes, fluorescence intensity was measured.
Fluorescence intensity of the reaction solution was measured using a spectrophotofluorometer under the following measuring conditions: excitation wavelength, 500 nm; emission wavelength, 536 nm; measuring times, one; response, 1 sec; photomultiplier tube voltage, Low; band width at excitation side, 10 nm; bandwidth at emission side, 10 nm.
The oxidation rate of dihydrorhodamine 123 when adding the test substance was calculated, taking the oxidation rate of dihydrorhodamine 123 for control as 100, according to the following equation: Oxidation rate (%) of dihydrorhodamine 123=(measured value for each group−measured value for blank)/(measured for control−measured value for blank)×100 Calculation of Oxidation Inhibition Concentration (IC50)
50% oxidation concentration, that is 50% oxidation inhibition concentration (IC50) was calculated by giving a straight line from two points surrounding 50% oxidation rate.

[3] = test system: airway hyper-responsiveness induced by ozone; test: Airway hyper-responsiveness model induced by inhalation of ozone in guinea pigs (lung resistance after methacholine); type: in vivo; settings: RLung after methacholine inhalation 5 hours after end of ozone exposure
Experimental: This test was performed so as to evaluate the pharmacological effect of the 7-aminoquinolinone derivatives of the present invention in an airway hyper-responsiveness model induced by inhalation of ozone in guinea pigs. The test procedure will now be described.
Guinea pigs were fasted for 18 hours or more. The animals were administered the test substance (30 mg/kg) and theophylline (100 mg/kg) one hour before ozone inhalation. For the non-stimulation group and the vehicle control group, vehicle (5 mL/kg) was administered similarly.
The animals were put into an acryl-made chamber (29×19×25 cm), subjected to induction of ozone generated by an ozonizer (EUV3-XU; EBARA JITSUGYO CO, LTD.) and exposed for 2 hours. The ozone concentration in the chamber was approximately 3 ppm. It was confirmed every 30 minutes that this concentration was maintained during exposure by an ozone monitor (EG-5000; EBARA JITSUGYO CO, LTD.) (measured value: 2.53 to 3.40 ppm). For the non-stimulation group, the animals were exposed to a mixed gas (oxygen: 95%, carbonic acid gas: 5%) similarly. The ozone concentration at that time was also confirmed similarly (acceptable concentration: 0.01 ppm or less, measured value: 0.00 to 0.01 ppm).
The measurement of airway hyper-responsiveness was performed 5 hours after the end of ozone exposure. The measurement of lung resistance (RLung) was performed according to the method of R. E. Giles et al. in the same manner as in Example 2. That is, the animals were anesthetized with Nembutal (Trade name: 50 mg/kg, i.p., sodium pentobarbital) and subjected to cannulation into esophagus and trachea. The esophagus and trachea cannulas were connected to a respirator (ventilation volume: 6 mL/kg, ventilation frequency: 60 times/min, SN-480-7) and the RLung after inhalation of methacholine (100 μg/mL, for 1.5 minutes) was measured by the respiratory function analyzer (PULMOS-II; M.I.P.S) through a flow sensor (connected to Validyle DF45F (for flow rate) and DP45P (for pressure)). The inhalation of methacholine was performed with an ultrasonic nebuliser (NE-U17; Omron Matsuzaka) connected to the respirator under artificial respiration.
Used RLung represents 10 breaths having a stable value in a range from 1 to 30 breaths after initiation of each measurement for both before inhalation and during methacholine inhalation. The average of the RLung was calculated. The extreme values in RLung that occurred when animal moved during the measurement were excluded from the calculations.
The percentage of increase of RLung was calculated by the following equation. Increase in lung resistance (%)=([RLung after inhalation of methacholine]−[RLung before administration])/[RLung before administration]×100

[4] = test substance 30 mg/kg one hour before ozone inhalation

IC50 [2] | SMILES | Increase in lung resistance (%) [1] | Increase in lung resistance (%) [3, 4] | Increase in lung resistance (%) ([3]; theophylline 100 mg/kg one hour before ozone inhalation)
960 nM | COc1c(OC(C)=O)c(=O)n(C)c2cc(N)ccc12 [Compound 32] | 435% | 32% | –
880 nM | CCCCCCOc1c(O)c2ccc(N)cc2n(C)c1=O [Compound 53] | 440% | 29% | –
960 nM | CCCCCCCCOc1c(O)c2ccc(N)cc2n(C)c1=O [Compound 55] | 425% | 26% | –
1050 nM | C=CCOc1c(O)c2ccc(N)cc2n(C)c1=O [Compound 56] | 434% | 30% | –
810 nM | COc1c(O)c(=O)n(C)c2cc(N)ccc12 [Compound 58] | 423% | 27% | –
840 nM | CCCCCCCCOc1c(O)c2ccc(N)cc2n(CC)c1=O [Compound 87] | 432% | 29% | –
790 nM | CCCCCCOc1c(O)c2ccc(N)cc2n(CCCCCC)c1=O [Compound 147] | 429% | 29% | –
890 nM | CCCCCCCCn1c(=O)c(OC)c(O)c2ccc(N)cc21 [Compound 173] | 430% | 30% | –
940 nM | CCCCCCCCn1c(=O)c(O)c(OC)c2ccc(N)cc21 [Compound 181] | 425% | 25% | –
890 nM | CCCCCCNc1ccc2c(O)c(OC)c(=O)[nH]c2c1 [Compound 204] | 439% | 37% | –
880 nM | CCNc1ccc2c(O)c(OC)c(=O)n(C)c2c1 [Compound 236] | 428% | 28% | –
820 nM | CCCCNc1ccc2c(OC)c(O)c(=O)n(CC)c2c1 [Compound 276] | 430% | 30% | –
840 nM | CCCCOc1c(O)c2ccc(N(C)C)cc2n(CCCC)c1=O [Compound 303] | 427% | 27% | –
800 nM | CCCCn1c(=O)c(O)c(OC)c2ccc(N(C)C)cc21 [Compound 309] | 435% | 34% | –
790 nM | CCCCCCn1c(=O)c(OC)c(O)c2ccc(NCC)cc21 [Compound 330] | 417% | 22% | –
850 nM | CCCCCCCCn1c(=O)c(OC)c(O)c2ccc(NCC)cc21 [Compound 359] | 431% | 31% | –
940 nM | CCCCCCCCOc1c(O)c2ccc(NC(C)=O)cc2n(C)c1=O [Compound 396] | 421% | 22% | –
1010 nM | CCCCCCOc1c(O)c(=O)n(C)c2cc(NC(C)=O)ccc12 [Compound 401] | 420% | 25% | –
940 nM | CCCCCCOc1c(O)c2ccc(NC=O)cc2n(CCCC)c1=O [Compound 459] | 427% | 26% | –
910 nM | COc1c(O)c2ccc(NC(=O)c3ccccc3)cc2n(C)c1=O [Compound 514] | 434% | 31% | –
830 nM | CCCCCCCCOc1c(O)c2ccc(NC(=O)c3ccccc3)cc2n(C)c1=O [Compound 519] | 440% | 26% | –
790 nM | COc1cc(C=CC(=O)Nc2ccc3c(O)c(OC)c(=O)n(C)c3c2)cc(OC)c1O [Compound 546] | 422% | 27% | –
– | Cn1c(=O)c2[nH]cnc2n(C)c1=O [theophylline, reference compound] | – | – | 26%

Reference: US8980914B2, “Therapeutic agent for chronic obstructive pulmonary disease and method for treatment for chronic obstructive pulmonary disease with the same” (Mariposa Health Limited, priority 2003, dated 2015)
